According to US20200246297A1, “LIQUID PHARMACEUTICAL FORMULATIONS OF TETRAIODOTHYRONINE” (priority 2015, published 2020):
Like-named read-outs stand apart in the source and are kept apart here.

Columns and labels:
[1] = cited from earlier work
[2] = Quantity of T4 microaggregates formed in water: HPLC T4 concentration before and after 0.2 μm microfiltration; type: physicochemical
Procedure: […] 50 mL of each sample taken is microfiltered through a Millipore GSWP02500 membrane with a porosity of 0.2 μm.
(§1) 50 mL of each sample taken is microfiltered through a Millipore GSWP02500 membrane with a porosity of […].
as §1
50 mL of each sample taken is microfiltered through a Millipore GSWP02500 membrane with a porosity of 0.2 μm.

[3] = Filtration through membranes with cut-off ≤100 KDa: T4 in the permeate; type: physicochemical
[4] = Scanning electron microscopy (SEM) of the filter membrane surface; type: physicochemical; details: T4 powder in water, comparative example
Procedure: These findings indicate that despite the 1:100 dilution process undergone by the original 150 μg/mL mixture, the formation of microaggregates remains stable, even after 8 h, and removes a considerable amount of the active ingredient from the pharmacological action.

[5] = Saturation of T4 solutions in PEG; type: physicochemical; details: T4 solvated in PEG
Source text: Due to their structure, said nanoaggregates are easily absorbed at gastrointestinal level, and are therefore completely and certainly bioavailable.

[6] = Protective effect of PEG: residual T4 assay by HPLC after 10 h stirring under nitrogen or oxygen; type: physicochemical; details: 600 rpm, 35° C.
Procedure: 5 mL of each solution is left under stirring for 10 h at 600 rpm and 35° C. in a nitrogen atmosphere, and 5 mL is left under the same conditions but in an oxygen atmosphere.

[7] = cited from earlier work; remark: listed apart in the source
[8] = T4 150 μg/mL in 50% w/w aqueous PEG 400, 2000, 4000 or 8000 (all types), diluted 100 times in water pH 1.5, T0
[9] = T4 150 μg/mL in 50% w/w aqueous PEG 400, 2000, 4000 or 8000 (all types), diluted 100 times in water pH 6.5, T0
[10] = T4 150 μg/mL in PEG 200, 300, 400 or 600 (all types), diluted 100 times in water pH 6.5, T0

(2S)-2-amino-3-[4-(4-hydroxy-3,5-diiodo-oxyphenyloxy)-3,5-diiodophenyl]propanoic acid [T4]
half-life of the medicament ([1]; euthyroidism): about 7 days
half-life of the medicament ([1]; hypothyroidism and pregnancy): 220 to 240 h
share absorbed in the duodenum ([1]; oral, small intestine): 21%
share absorbed in the ileum ([1]; oral, small intestine): 34%
share absorbed in the jejunum ([1]; oral, small intestine): 45%
time absorption takes ([1]; oral): about three
T4 concentration after microfiltration ([2]; T4 150 μg/mL in 30% w/w aqueous PEG 400, 2000, 4000 or 8000 (all types), diluted 100 times in water pH 6.5, T0): 75 % of the value before microfiltration
T4 concentration after microfiltration [2, 8]: 100 % of the theoretical value
T4 concentration before microfiltration [2, 8]: 100 % of the theoretical value
T4 concentration after microfiltration [2, 9]: 100 % of the theoretical value
T4 concentration before microfiltration [2, 9]: 100 % of the theoretical value
T4 concentration after microfiltration [2, 10]: 100 % of the theoretical value
T4 concentration before microfiltration [2, 10]: 100 % of the theoretical value
T4 concentration after microfiltration compared with before ([2]; T4 150 μg/mL in PEG 8000/glycerol or PEG/ethanol 50/50 w/w (both systems), diluted 100 times in water pH 6.5, T0): identical to that before microfiltration
behaviour at later times (microfiltration) ([2]; T4 in 30% w/w aqueous PEG, diluted 100 times in water pH 6.5, T1h, T4h and T8h): behaviour similar to that at T0
T4 concentration in the solution before microfiltration ([2]; T4 powder 150 μg/mL in water pH 6.5, diluted 1:100 in water pH 6.5, T0 (30 sec)): 97.3 % of the theoretical value
T4 concentration after microfiltration ([2]; T4 powder 150 μg/mL in water pH 6.5, diluted 1:100 in water pH 6.5, T0 (30 sec), 0.2 μm filter): 18.5 % of the theoretical value
T4 concentration in the solution before microfiltration ([2]; T4 powder in water pH 6.5, diluted 1:100, T1h): 97.9%
T4 concentration after microfiltration ([2]; T4 powder in water pH 6.5, diluted 1:100, T1h, 0.2 μm filter): 27.1%
T4 concentration in the solution before microfiltration ([2]; T4 powder in water pH 6.5, diluted 1:100, T4h): 98.2%
T4 concentration after microfiltration ([2]; T4 powder in water pH 6.5, diluted 1:100, T4h, 0.2 μm filter): 27.5%
T4 concentration in the solution before microfiltration ([2]; T4 powder in water pH 6.5, diluted 1:100, T8h): 97.5%
T4 concentration after microfiltration ([2]; T4 powder in water pH 6.5, diluted 1:100, T8h, 0.2 μm filter): 23.7%
T4 in the permeate of ≤100 KDa membrane ([3]; T4 in 50% PEG in water, diluted 100 times in water pH 6.5): quantitative absence of T4 in the permeate
T4 in the permeate of ≤100 KDa membrane ([3]; T4 in 50% w/w aqueous PEG, diluted 100 times in water pH 1.5): quantitative absence of T4 in the permeate
T4 in the permeate of ≤100 KDa membrane ([3]; T4 in PEG 200, 300, 400 or 600, diluted 100 times in water pH 6.5): quantitative absence of T4 in the permeate
T4 in the permeate of ≤100 KDa membrane ([3]; T4 in PEG 8000/glycerol or PEG/ethanol 50/50 w/w, diluted 100 times in water pH 6.5): quantitative absence of T4 in the permeate
T4 in the permeate of ≤100 KDa membrane ([3]; T4 in glycerin, ethanol or glycerin/ethanol 80/20 w/w, diluted 100 times in water pH 6.5): quantitative absence of T4 in the permeate
average length on the longer axis of elongated crystalline structures on the filter [4]: exceeding 3.03±1.40 μm
concentration of T4 solution in PEG usable without the system becoming saturated [5]: up to 0.1 g/mL
T4 assay value of the solutions ([6]; T4 150 μg/mL in ethanol, glycerol, PEG 200, 300, 400 or 600 (all cases), nitrogen atmosphere): remains the same as the theoretical value
residual T4 assay value ([6]; T4 150 μg/mL in glycerol or ethanol, oxygen atmosphere): 30 % of the original assay value
intrinsic dissolution rate (IDR) ([7]; entire physiological pH range): about 0.0002 mg/min/cm^2
Biopharmaceutics Classification System class ([7]; high solubility and intestinal permeability): Class I
